Source: patent publication US6358736B1, “Method for increasing the antigen presenting ability of leukemia cells” (The United States of America as represented by the …, priority 1995, dated 2002)
Entries after “also recorded” stand apart in the source; their conditions may differ.

How the values were obtained:
HL-60 cells [1] = assay: FACS analysis of cell surface markers on HL-60 cells; type: cell-based, human; settings: 24 hours
Procedure: Calcium was removed from cultured cells by two methods.
The second method involved washing the cells extensively in calcium-free RPMI medium, and culturing them in the same calcium-free medium supplemented with serum that had been dialyzed against calcium-free phosphate-buffered saline.
The calmodulin kinase inhibitors KN-62 (20 uM) or KT-5926 (1 uM) was added to HL-60 cells in the presence of 188 ng/ml A23187. Twenty four hours later the level of CD80 was analyzed.
Thapsigargin was added to cultured human peripheral blood monocytes and HL-60 cells in concentrations ranging from 0 to 1000 nM. Cells were harvested 24 hours later and evaluated for the acquisition of ADC immunophenotypic characteristics by FACS analysis.
Cells were harvested after three days, irradiated (3000R), then FACS analyzed or cocultured in graded numbers with freshly prepared naive (CD45RO negative) T lymphocytes. Allosensitization was assessed by pulsing at day 4 with ^3H-TdR and harvesting 18 hours later.

WEHI-3 = assay: Costimulatory molecule expression on mouse myeloid leukemia line; type: cell-based; settings: following calcium mobilization
Excerpt: Myeloid leukemia cell lines display marked upregulation of molecules linked to antigen-presentation and acquire increased T cell sensitizing capacity following calcium mobilization with either calcium ionophore or thapsigargin.

HL-60 cells [2] = assay: FACS analysis of cell surface markers on HL-60 cells; type: cell-based, human
[3] = test system: human peripheral blood monocytes; assay: FACS analysis of cell surface markers on cultured peripheral blood monocytes; type: cell-based
monocytes = assay: Calcium-chelation luminescence spectrophotometry of intracellular calcium flux; type: cell-based, human; settings: indol-loaded monocytes; calcium ionophore 180-750 ng/ml
Procedure: Calcium-chelation luminescence spectrophotometry was utilized to measure intracellular calcium fluxes in monocytes. Monoytes were incubated with 5 uM/ml indol, a calcium chelating agent which emits fluorescence at different wavelengths (405 or 480 nm) depending on whether or not it is bound to cycloplasmic calcium. Increased calcium mobilization causes relative shifts in emission from one wavelength to the other. After 30 minute incubation with indol, monocytes were washed, pulsed with a variety of agents such as calcium ionophore, virus, f-MET-LEU-PHE, or LPS. To measure calcium fluxes at subsequent time intervals, cells were stimulated with a 355 nm wavelength beam, and fluorescence emission measured at 405 and 480 nm.

C/C=C(/C)C(=O)O[C@H]1C(C)=C2[C@H]([C@@H]1OC(=O)CCCCCCC)[C@@](C)(OC(C)=O)C[C@H](OC(=O)CCC)[C@@]1(O)[C@H]2OC(=O)[C@@]1(C)O [thapsigargin]
dose giving optimal response (HL-60 cells [1]; range 0 to 1000 nM): 250 nM | levels of CD80, CD86 and ICAM-1 relative to those observed with ionophore (HL-60 cells [1]; thapsigargin 250 nM): 50-75% | costimulatory molecule expression (WEHI-3): markedly increased costimulatory molecule expression | expression of CD83, ICAM-1, B7.1 and B7.2 (HL-60 cells [2]; optimal doses, within 20 hours): uniform de novo expression of CD83, ICAM-1, B7.1, and B7.2 | upregulation of CD80, CD86, CD40, HLA-DR, HLA-ABC, ICAM-1 and CD83 as magnitude of that with optimal (750 ng/ml) A23187 ([3]; thapsigargin 750 nM, 24 hours): about 50% | CD14 downregulation, effectiveness relative to ionophore ([3]; thapsigargin, 24 hours): about 75%

f-MET-LEU-PHE
intracellular calcium flux / mobilization (monocytes): only a brief calcium flux of much lower magnitude | induction of activated myeloid dendritic cell phenotype (CD80 and CD83 expression) ([3]; 20-40 hours, wide dose range, alone or in combination): do not induce monocytes to express the phenotype of activated myeloid dendritic cells; also recorded: does not induce that phenotype

trifluoperazine dimaleate [TpD]
inhibition of ionophore-induced up-regulation of CD80 (HL-60 cells [2]; TpD 10 uM (optimal), A23187 188 ng/ml, 24 hours): over 90% | effect on CD40, HLA-DR and HLA-ABC ([3]; TpD): significant suppressive effects | inhibition of CD80 ([3]; TpD 10 uM (optimal)): over 50% | inhibition of CD86 ([3]; TpD 10 uM (optimal)): over 50% | effect of agent on ionophore-induced activated myeloid dendritic cell phenotype ([3]; added to calcium ionophore treatment): inhibited at least some of the ionophore's effects
